Measured values taken from patent US6949565B2, “Protein kinase inhibitors” (Develogen Israel Ltd., priority 2000, dated 2005).

Test system: PKC
Experiment: PKC activity inhibition
Format: biochemical

IC50: 31 µM
Structure (SMILES): O=S(=O)(NCCNCC=Cc1ccc(Br)cc1)c1cccc2cnccc12 [H-89, N-[2-(p-bromocinnamylamino)ethyl]-5-isoquinolinesulfonamide]
